In paper PMC2817922, “Inhibitory Activity of Marine Sponge-Derived Natural Products against Parasitic Protozoa” (Marine Drugs, 2010):
Values after ≈ are worked out from the molar mass of the structure shown. Where two headings read alike, the source gives them in different places.

Key:
[1] = tested on: Trypanosoma brucei rhodesiense, STIB 900 strain; test: Activity against Trypanosoma brucei rhodesiense (Alamar Blue); assay type: cell-based; settings: read-out: IC50 Trypanosoma b. rhodesiense
Experimental: Trypanosoma brucei rhodesiense, STIB 900 strain, and the standard drug, melarsoprol, were used for the assay. This stock was isolated in 1982 from a human patient in Tanzania and after several mouse passages cloned and adapted to axenic culture conditions. Minimum Essential Medium (50 μL) supplemented with 25 mM HEPES, 1g/L additional glucose, 1% MEM non-essential amino acids (100x), 0.2 mM 2-mercaptoethanol, 1 mM Na-pyruvate and 15% heat inactivated horse serum was added to each well of a 96-well microtiter plate. Serial drug dilutions of seven 3-fold dilution steps covering a range from 90 to 0.123 μg/mL were prepared. Then 10^4 bloodstream forms of T. b. rhodesiense STIB 900 in 50 μL was added to each well and the plate incubated at 37 °C under a 5% CO2 atmosphere for 72 h. 10 μL Alamar Blue (resazurin, 12.5 mg in 100 mL double-distilled water) was then added to each well and incubation continued for a further 2–4 h. Then, the plates were read with a Spectramax Gemini XS microplate fluorometer (Molecular Devices Cooperation, Sunnyvale, CA, USA) using an excitation wavelength of 536 nm and an emission wavelength of 588 nm. Data were analyzed using the microplate reader software Softmax Pro (Molecular Devices Cooperation, Sunnyvale, CA, USA).

[2] = tested on: L. donovani strain MHOM/ET/67/L82; test: Activity against Leishmania donovani axenic amastigotes (Alamar Blue); assay type: cell-based; settings: for IC50: Leishmania donovani, axenic amastigotes, MHOM/ET/67/L82, 72 h
Experimental: Amastigotes of L. donovani strain MHOM/ET/67/L82 were grown in axenic culture at 37 °C in SM medium at pH 5.4 supplemented with 10% heat-inactivated fetal bovine serum under an atmosphere of 5% CO2 in air. One hundred microlitres of culture medium with 10^5 amastigotes from axenic culture with or without a serial drug dilution were seeded in 96-well microtitre plates. Serial drug dilutions covering a range from 90 to 0.123 μg/mL were prepared. After 72 h of incubation the plates were inspected under an inverted microscope to assure growth of the controls and sterile conditions. 10 μL of Alamar Blue (12.5 mg resazurin dissolved in 100 mL distilled water) were then added to each well and the plates incubated for another 2 h. Then, the plates were read with a Spectramax Gemini XS microplate fluorometer using an excitation wavelength of 536 nm and an emission wavelength of 588 nm. Data were analyzed using the software Softmax Pro (Molecular Devices Cooperation, Sunnyvale, CA, USA). Decrease of fluorescence (=inhibition) was expressed as percentage of the fluorescence of control cultures and plotted against the drug concentrations. From the sigmoidal inhibition curves the IC50 values were calculated. Miltefosine was used as reference drug.

[3] = tested on: T. cruzi Tulahuen strain C2C4; test: Activity against Trypanosoma cruzi (intracellular amastigotes in L6 cells, beta-galactosidase/CPRG); assay type: cell-based; settings: for IC50: Trypanosoma cruzi, TULAHUEN, Myoblast, in Rattus norvegicus, 96 h, intracellular amastigotes in L6 rat skeletal myoblasts, Tulahuen C2C4, 96 h
Experimental: Rat skeletal myoblasts (L6 cells) were seeded in 96-well microtitre plates at 2000 cells/well in 100 μL RPMI 1640 medium with 10% FBS and 2 mM L-glutamine. After 24 h the medium was removed and replaced by 100 μL per well containing 5000 trypomastigote forms of T. cruzi Tulahuen strain C2C4 containing the β-galactosidase (Lac Z) gene. After 48 h, the medium was removed from the wells and replaced by 100 μL fresh medium with or without a serial drug dilution of seven 3-fold dilution steps covering a range from 90 to 0.123 μg/mL. After 96 h of incubation, the plates were inspected under an inverted microscope to assure growth of the controls and sterility. Then, the substrate CPRG/Nonidet (50 μL) was added to all wells. A color reaction developed within 2–6 h and could be read photometrically at 540 nm. Data were transferred into the graphic programme Softmax Pro (Molecular Devices), which calculated IC50 values. Benznidazole was the reference drug used.

P. falciparum K1 strain = test: Activity against Plasmodium falciparum ([3H]-hypoxanthine incorporation); assay type: cell-based; settings: for IC50: Plasmodium falciparum
Experimental: In vitro activity against erythrocytic stages of P. falciparum was determined by a modified [^3H]-hypoxanthine incorporation assay, using the chloroquine- and pyrimethamine-resistant K1 strain and the standard drug […]. Briefly, parasite cultures incubated in RPMI 1640 medium with 5% Albumax (without hypoxanthine) were exposed to serial drug dilutions in microtiter plates. After 48 h of incubation at 37°C in a reduced oxygen atmosphere, 0.5 μCi ^3H-hypoxanthine was added to each well. Cultures were incubated for a further 24 h before they were harvested onto glass-fiber filters and washed with distilled water. The radioactivity was counted using a Betaplate™ liquid scintillation counter (Wallac, Zurich). […] IC50 values were calculated from the sigmoidal inhibition curves using Microsoft Excel. Chloroquine was the reference drug used.

[4] = Cytotoxicity against L6 cells (Alamar Blue); assay type: cell-based, rat
Experimental: Assays were performed in 96-well microtiter plates, each well containing 100 μL of RPMI 1640 medium supplemented with 1% L-glutamine (200 mM) and 10% fetal bovine serum, and 4 × 10^4 L6 cells (a […] cell line derived from rat skeletal myoblasts). Serial drug dilutions of seven 3-fold dilution steps covering a range from 90 to 0.123 μg/mL were prepared. After 72 h of incubation, the plates were inspected under an inverted microscope to assure growth of the controls and sterile conditions. Ten μL of Alamar Blue solution was then added to each well and the plates incubated for another 2 h. Then the plates were read with a Spectramax Gemini XS microplate fluorometer using an excitation wavelength of 536 nm and an emission wavelength of 588 nm. Data were analysed using the microplate reader software Softmax Pro. Podophyllotoxin was the reference drug used.

[5] = bloodstream forms, STIB 900, 72 h, average of at least two independent assays in duplicates
[6] = K1, erythrocytic stages, K1 strain resistant to chloroquine and pyrimethamine, read-out: IC50 Plasmodium falciparum

SMILES | IC50 [1, 5] [µg/mL] | IC50 [2] [µg/mL] | IC50 [3] [µg/mL] | IC50 (P. falciparum K1 strain; [6]) [µg/mL] | IC50 at 72 h ([4]; rat) [µg/mL] | IC50 at 72 h ([4]; L6 cells (rat skeletal myoblasts), 72 h, read-out: IC50 Cytotoxicity) [µg/mL] | selectivity index (IC50 against L6 cells/IC50 against parasite) (P. falciparum K1 strain; towards the malaria parasite (P. falciparum)) | IC50 (P. falciparum K1 strain; K1, read-out: IC50 Plasmodium falciparum) [µg/mL] | selectivity index (IC50 against L6 cells/IC50 against parasite) ([2]; for L. donovani) | fold less active against T. cruzi than against T. b. rhodesiense ([3]; ratio of IC50 values) [fold] | IC50 ([1]; 72 h) [µg/mL]
C/C(=C\CCc1ccoc1)C[C@@H](O)C[C@@H](C)CCCc1ccoc1 [Compound 3, furospongin-1] | 13.9 (≈ 42.2 µM) | 4.8 (≈ 14.5 µM) | 17.5 (≈ 52.9 µM) | 14 (≈ 42.4 µM) | 27.4 (≈ 83.1 µM) | – | – | – | – | – | –
CC(C)=CCC/C(C)=C/CC/C(C)=C/CC/C(C)=C/CC/C(C)=C/CC/C(C)=C/CC/C(C)=C/CC/C(C)=C/Cc1cc(C(=O)O)ccc1O [Compound 7, 4-hydroxy-3-octaprenylbenzoic acid] | 13.1 (≈ 19.2 µM) | 5.6 (≈ 8.2 µM) | > 90 | ~1 (≈ 1.46 µM) | 86.5 (≈ 127 µM) | – | – | – | – | – | –
CC(C)=CCC/C(C)=C/CC/C(C)=C/CC/C(C)=C/CC/C(C)=C/CCc1ccoc1 [Compound 2, furospinulosin-2] | 16.2 (≈ 38.2 µM) | > 90 | > 90 | 3.51 (≈ 8.3 µM) | 34 (≈ 80.4 µM) | – | – | – | – | – | –
O=C(Cn1ccnc1[N+](=O)[O-])NCc1ccccc1 [benznidazole, reference compound] | – | – | 0.359 (≈ 1.38 µM) | – | – | – | – | – | – | – | –
COc1cc([C@@H]2c3cc4c(cc3[C@H](O)[C@H]3COC(=O)[C@H]23)OCO4)cc(OC)c1OC [podophyllotoxin, reference compound] | – | – | – | – | – | 0.004 (≈ 0.00965 µM) | – | – | – | – | –
CC(=O)O[C@H]1C=C2C(=O)OCC2[C@@]2(C)C1[C@@]1(C)CCCC(C)(C)C1C[C@@H]2OC(C)=O (some centres unmarked) [Compound 11, dorisenone D] | 2.47 (≈ 5.9 µM) | > 90 | > 90 | 0.43 (≈ 1.03 µM) | 3.93 (≈ 9.39 µM) | – | > 9 | – | – | – | –
CC(C)=CCC/C(C)=C/CC/C(C)=C/CC/C=C(\C)CC/C=C(\C)CCC=C(C)C [Compound 10, squalene] | 15 (≈ 36.6 µM) | > 90 | > 90 | ~1 (≈ 2.43 µM) | 34.9 (≈ 84.9 µM) | – | – | – | – | – | –
CC(C)=CCC/C(C)=C/CC/C(C)=C/CC/C(C)=C/CCc1ccoc1 [Compound 1, furospinulosin-1] | 27.4 (≈ 77.4 µM) | 14.2 (≈ 40 µM) | > 90 | 11.2 (≈ 31.5 µM) | > 90 | – | – | – | – | – | –
CC(C)=CCC/C(C)=C/CC/C(C)=C/CC/C(C)=C/CC/C(C)=C/CC/C(C)=C/CCC1(C)C=Cc2cc(O)ccc2O1 (centres unmarked) [Compound 6, 2-(hexaprenylmethyl)-2-methylchromenol] | 41.4 (≈ 70.8 µM) | 15.9 (≈ 27.2 µM) | > 90 | > 20 | > 90 | – | – | – | – | – | –
CC(=O)O[C@H]1CC2[C@@]3(C)CCCC(C)(C)C3CC[C@@]2(C)C2CC=C3CO[C@@H](O)C3[C@]21C (stereo partly drawn) [Compound 13, 12-epi-deoxoscalarin] | 55.2 (≈ 128 µM) | > 90 | 40.4 (≈ 93.9 µM) | 7.48 (≈ 17.4 µM) | 60.3 (≈ 140 µM) | – | – | – | – | – | –
CCN(CC)CCCC(C)Nc1ccnc2cc(Cl)ccc12 (centres unmarked) [chloroquine, reference compound] | – | – | – | – | – | – | – | 0.056 (≈ 0.175 µM) | – | – | –
CC(=O)O[C@H]1C=C2C(=O)OCC2[C@]2(C)CCC3C(C)(C)CCC[C@]3(C)C12 (stereo partly drawn) [Compound 12, 11β-acetoxyspongi-12-en-16-one] | 4.14 (≈ 11.5 µM) | 0.75 (≈ 2.08 µM) | ~4 (≈ 11.1 µM) | ~1 (≈ 2.77 µM) | 3.32 (≈ 9.21 µM) | – | – | – | 4.4 | – | –
COC(=O)/C(C)=C/CC/C(=C/CC/C(C)=C/CC/C(C)=C/CCc1ccoc1)C(=O)O [Compound 4, furospongin-4] | 17.9 (≈ 41.9 µM) | > 90 | > 90 | 7.51 (≈ 17.5 µM) | > 90 | – | – | – | – | – | –
CC(C)=CCC/C(C)=C/CC/C(C)=C/CC/C(C)=C/Cc1cc(CC(=O)O)ccc1O [Compound 8, 4-hydroxy-3-tetraprenylphenylacetic acid] | 0.6 (≈ 1.41 µM) | > 90 | > 90 | 3.3 (≈ 7.77 µM) | > 90 | – | – | – | – | – | –
OCCc1c[nH]c2ccccc12 [Compound 14, tryptophol] | 5.89 (≈ 36.5 µM) | 9.6 (≈ 59.6 µM) | 49.4 (≈ 306 µM) | 5.08 (≈ 31.5 µM) | 63.5 (≈ 394 µM) | – | – | – | – | 8 | –
CCCCCCCCCCCCCCCCOP(=O)([O-])OCC[N+](C)(C)C [miltefosine, reference compound] | – | 0.2 (≈ 0.491 µM) | – | – | – | – | – | – | – | – | –
Nc1nc(N)nc(Nc2ccc([As]3SCC(CO)S3)cc2)n1 (centres unmarked) [melarsoprol, reference compound] | – | – | – | – | – | – | – | – | – | – | 0.003
